From ChEMBL document CHEMBL1201862, “PubChem BioAssay data set” (2004)
Calls of active or inactive are those of the source.

Legend:
[1] = target: Eukaryotic translation initiation factor 4E (Mus musculus, UniProt P63073); experiment: eIF4E–eIF4G protein interaction inhibitors, dose response, biochemical, TR-FRET (AID 855); type: functional;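 note: potency for disrupting eIF4E binding to eIF4GI seen as loss of FRET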
[2] = target: 72 kDa type IV collagenase (Homo sapiens, UniProt P08253); experiment: Dose Response validation of uHTS RPN11 inhibitor hits using a MMP-2 Fluorescence assay.; type: functional
72 kDa type IV collagenase, sequence (P08253 whole entry): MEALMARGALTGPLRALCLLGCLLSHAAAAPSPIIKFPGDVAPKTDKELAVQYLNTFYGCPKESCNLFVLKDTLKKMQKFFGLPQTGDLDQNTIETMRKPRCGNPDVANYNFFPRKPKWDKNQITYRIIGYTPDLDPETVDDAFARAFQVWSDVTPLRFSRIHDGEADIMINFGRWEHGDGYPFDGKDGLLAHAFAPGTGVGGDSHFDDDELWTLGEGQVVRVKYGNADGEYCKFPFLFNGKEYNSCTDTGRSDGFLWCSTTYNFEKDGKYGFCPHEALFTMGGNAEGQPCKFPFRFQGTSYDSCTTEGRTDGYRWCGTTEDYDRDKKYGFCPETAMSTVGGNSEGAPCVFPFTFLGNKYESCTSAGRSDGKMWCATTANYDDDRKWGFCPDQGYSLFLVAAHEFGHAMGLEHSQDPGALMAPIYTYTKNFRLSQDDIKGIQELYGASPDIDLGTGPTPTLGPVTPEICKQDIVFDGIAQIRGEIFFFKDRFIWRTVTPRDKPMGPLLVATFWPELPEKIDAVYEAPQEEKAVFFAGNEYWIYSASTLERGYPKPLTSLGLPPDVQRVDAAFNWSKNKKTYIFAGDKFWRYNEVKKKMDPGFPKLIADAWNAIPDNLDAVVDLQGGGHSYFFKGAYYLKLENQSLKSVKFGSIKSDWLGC

Prothrombin = Prothrombin (Bos taurus, UniProt P00735); experiment: thrombin inhibition, dose response, biochemical, fluorescence polarization, uHTS hits (AID 602369); type: functional
[3] = target: 26S proteasome non-ATPase regulatory subunit 14 (Homo sapiens, UniProt O00487); experiment: inhibition of proteasome subunit RPN11 – biochemical, fluorescence polarization, uHTS hits, confirmation (AID 602368); type: functional
26S proteasome non-ATPase regulatory subunit 14, sequence (O00487 whole entry): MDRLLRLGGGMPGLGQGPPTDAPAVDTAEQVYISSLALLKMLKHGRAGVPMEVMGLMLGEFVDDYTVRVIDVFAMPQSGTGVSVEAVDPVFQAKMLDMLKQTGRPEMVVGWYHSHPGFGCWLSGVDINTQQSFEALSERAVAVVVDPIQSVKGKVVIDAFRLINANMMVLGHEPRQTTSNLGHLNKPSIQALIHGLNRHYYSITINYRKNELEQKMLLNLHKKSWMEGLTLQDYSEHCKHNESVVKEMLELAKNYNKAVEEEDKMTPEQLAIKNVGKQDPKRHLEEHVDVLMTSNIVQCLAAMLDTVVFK

[4] = target: T1, High affinity choline transporter 1 (Homo sapiens, UniProt Q9GZV3); experiment: CHT inhibitors, dose response, cell-based, 5-point CRC, membrane potential dye (AID 504840); type: functional
T1 sequence (Q9GZV3 whole entry): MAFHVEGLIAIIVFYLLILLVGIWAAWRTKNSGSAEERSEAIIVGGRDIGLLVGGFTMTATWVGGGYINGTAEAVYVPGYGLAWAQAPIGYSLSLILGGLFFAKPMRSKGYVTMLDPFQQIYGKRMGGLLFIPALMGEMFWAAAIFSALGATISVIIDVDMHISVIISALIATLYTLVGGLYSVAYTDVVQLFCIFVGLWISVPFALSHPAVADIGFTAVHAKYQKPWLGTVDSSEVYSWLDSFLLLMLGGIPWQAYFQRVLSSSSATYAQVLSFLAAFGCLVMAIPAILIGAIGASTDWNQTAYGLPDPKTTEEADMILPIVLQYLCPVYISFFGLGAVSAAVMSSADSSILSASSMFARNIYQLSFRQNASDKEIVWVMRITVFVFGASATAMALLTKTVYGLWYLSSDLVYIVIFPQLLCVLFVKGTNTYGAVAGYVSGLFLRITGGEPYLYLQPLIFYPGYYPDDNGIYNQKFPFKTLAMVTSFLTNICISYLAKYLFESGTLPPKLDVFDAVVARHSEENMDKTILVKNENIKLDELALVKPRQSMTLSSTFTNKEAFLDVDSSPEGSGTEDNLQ

Leucine aminopeptidase = target: T2, Leucine aminopeptidase (Plasmodium falciparum 3D7, UniProt Q8IL11); experiment: P. falciparum M17LAP inhibitors, primary screen, biochemical, fluorogenic H-Leu-NHMec substrate, 1536-well (AID 1619); type: functional
T2 sequence (Q8IL11 whole entry): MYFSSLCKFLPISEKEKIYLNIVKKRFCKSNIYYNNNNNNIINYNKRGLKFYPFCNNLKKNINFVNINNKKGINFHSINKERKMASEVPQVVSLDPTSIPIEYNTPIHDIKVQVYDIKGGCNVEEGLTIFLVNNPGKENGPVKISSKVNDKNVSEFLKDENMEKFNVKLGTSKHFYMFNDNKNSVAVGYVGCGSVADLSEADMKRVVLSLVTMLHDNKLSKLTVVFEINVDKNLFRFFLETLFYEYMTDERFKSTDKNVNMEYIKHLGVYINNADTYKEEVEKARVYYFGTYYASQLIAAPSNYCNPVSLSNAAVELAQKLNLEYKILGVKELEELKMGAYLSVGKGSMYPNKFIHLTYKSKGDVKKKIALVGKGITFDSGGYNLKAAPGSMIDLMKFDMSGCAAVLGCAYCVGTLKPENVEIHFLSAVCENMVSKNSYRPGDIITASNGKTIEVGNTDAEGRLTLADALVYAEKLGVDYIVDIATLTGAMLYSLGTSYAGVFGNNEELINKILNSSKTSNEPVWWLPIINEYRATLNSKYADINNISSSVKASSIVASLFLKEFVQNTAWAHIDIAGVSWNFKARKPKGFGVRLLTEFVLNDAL

[5] = target: T3, Polyadenylate-binding protein 1 (Homo sapiens, UniProt P11940); experiment: PABP1 MLLE–PAM2 binding inhibitor potency, dose response, biochemical, fluorescence polarization, FITC-PAM2 peptide (AID 602259); type: functional; conditions: read-out: IC50_Mean
T3 sequence (P11940 whole entry): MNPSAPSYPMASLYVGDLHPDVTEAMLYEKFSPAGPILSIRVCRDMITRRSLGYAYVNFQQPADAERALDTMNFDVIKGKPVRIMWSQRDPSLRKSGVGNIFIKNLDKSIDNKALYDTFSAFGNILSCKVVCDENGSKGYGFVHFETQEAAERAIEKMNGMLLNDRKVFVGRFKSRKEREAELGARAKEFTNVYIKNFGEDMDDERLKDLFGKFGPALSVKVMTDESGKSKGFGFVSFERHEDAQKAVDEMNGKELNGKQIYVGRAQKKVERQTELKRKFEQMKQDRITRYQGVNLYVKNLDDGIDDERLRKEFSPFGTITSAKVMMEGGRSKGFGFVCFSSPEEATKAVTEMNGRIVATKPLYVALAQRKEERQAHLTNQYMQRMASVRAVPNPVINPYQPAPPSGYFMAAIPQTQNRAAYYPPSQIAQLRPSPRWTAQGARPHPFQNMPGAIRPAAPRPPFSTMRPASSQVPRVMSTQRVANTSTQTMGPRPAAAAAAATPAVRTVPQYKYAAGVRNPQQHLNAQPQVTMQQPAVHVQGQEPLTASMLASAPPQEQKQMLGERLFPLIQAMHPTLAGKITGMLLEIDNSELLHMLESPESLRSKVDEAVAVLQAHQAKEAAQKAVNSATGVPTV

[6] = target: T3, Polyadenylate-binding protein 1; experiment: PABP1 MLLE–PAM2 interaction inhibitors, dose response, miRNA deadenylation inhibitor project, biochemical, fluorescence polarization, Cy5-PAM2 peptide, secondary (AID 602260); type: functional; conditions: read-out: IC50_Mean
[7] = target: Mitogen-activated protein kinase 10 (Homo sapiens, UniProt P53779); experiment: Dose response biochemical screening assay for inhibitors of c-Jun N-Terminal Kinase 3 (JNK3). [Related pubchem assays: 746 ]
Mitogen-activated protein kinase 10, sequence (P53779 whole entry): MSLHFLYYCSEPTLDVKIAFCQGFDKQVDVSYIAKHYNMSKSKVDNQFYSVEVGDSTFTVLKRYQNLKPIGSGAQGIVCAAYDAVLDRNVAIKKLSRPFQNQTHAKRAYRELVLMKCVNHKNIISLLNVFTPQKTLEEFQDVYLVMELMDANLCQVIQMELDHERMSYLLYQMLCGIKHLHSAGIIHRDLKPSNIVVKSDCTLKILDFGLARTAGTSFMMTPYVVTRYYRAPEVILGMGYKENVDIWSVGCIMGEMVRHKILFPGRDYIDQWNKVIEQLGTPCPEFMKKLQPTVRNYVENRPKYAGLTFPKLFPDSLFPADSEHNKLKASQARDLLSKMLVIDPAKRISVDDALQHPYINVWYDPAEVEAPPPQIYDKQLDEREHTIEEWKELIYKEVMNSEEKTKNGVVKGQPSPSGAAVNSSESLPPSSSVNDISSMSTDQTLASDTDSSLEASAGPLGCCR

[8] = target: T4, Small ubiquitin-related modifier 1 (Homo sapiens, UniProt P63165); experiment: inhibitors of SUMO1 peptide binding, dose response, biochemical, fluorescence polarization, uHTS hits (AID 624382); type: functional; conditions: read-out: IC50_Mean
T4 sequence (P63165 whole entry): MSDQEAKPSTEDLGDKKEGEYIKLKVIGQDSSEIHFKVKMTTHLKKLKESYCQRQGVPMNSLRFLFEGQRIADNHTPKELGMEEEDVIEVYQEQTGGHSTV

[9] = target: T4, Small ubiquitin-related modifier 1; experiment: inhibitors of SUMO1 partner interactions, dose response, biochemical, FRET (AID 624383); type: functional; conditions: read-out: IC50_Mean
Large T antigen = Large T antigen (Simian virus 40, UniProt P03070); type: functional, Betapolyomavirus macacae;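 note: Confirmatory-stage PubChem screen for compounds that inhibit SV40 T antigen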
Large T antigen, sequence (P03070 whole entry): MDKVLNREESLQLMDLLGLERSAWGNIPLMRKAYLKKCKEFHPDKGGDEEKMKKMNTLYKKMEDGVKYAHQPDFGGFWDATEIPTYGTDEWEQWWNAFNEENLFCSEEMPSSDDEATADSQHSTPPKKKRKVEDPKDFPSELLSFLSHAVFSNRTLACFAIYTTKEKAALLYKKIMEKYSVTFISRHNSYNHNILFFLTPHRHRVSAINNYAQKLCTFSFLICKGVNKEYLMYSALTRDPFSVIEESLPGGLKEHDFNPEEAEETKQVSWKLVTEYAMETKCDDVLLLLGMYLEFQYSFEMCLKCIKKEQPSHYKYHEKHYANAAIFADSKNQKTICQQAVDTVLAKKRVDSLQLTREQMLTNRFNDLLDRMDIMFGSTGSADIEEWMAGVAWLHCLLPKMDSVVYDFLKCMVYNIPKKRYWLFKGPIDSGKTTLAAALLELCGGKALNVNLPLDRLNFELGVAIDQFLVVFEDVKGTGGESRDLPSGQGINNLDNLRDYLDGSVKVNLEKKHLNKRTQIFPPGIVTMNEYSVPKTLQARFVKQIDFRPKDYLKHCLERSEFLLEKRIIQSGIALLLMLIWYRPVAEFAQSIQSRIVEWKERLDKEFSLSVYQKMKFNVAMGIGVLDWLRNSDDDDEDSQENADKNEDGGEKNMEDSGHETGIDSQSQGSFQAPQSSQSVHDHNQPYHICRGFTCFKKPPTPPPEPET

[10] = target: FAD-linked sulfhydryl oxidase ALR (Homo sapiens, UniProt P55789); experiment: inhibitors of human ALR sulfhydryl oxidase, dose response, biochemical, H2O2 detection, luminescence, cherry-pick (AID 493248)
FAD-linked sulfhydryl oxidase ALR, sequence (P55789 whole entry): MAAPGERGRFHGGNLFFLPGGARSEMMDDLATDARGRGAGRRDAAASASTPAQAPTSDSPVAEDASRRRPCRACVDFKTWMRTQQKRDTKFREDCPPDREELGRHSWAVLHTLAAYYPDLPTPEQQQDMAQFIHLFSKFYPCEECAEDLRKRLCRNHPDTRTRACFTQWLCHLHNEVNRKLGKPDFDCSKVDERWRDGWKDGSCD

[11] = target: Induced myeloid leukemia cell differentiation protein Mcl-1 (Homo sapiens, UniProt Q07820); type: functional
Induced myeloid leukemia cell differentiation protein Mcl-1, sequence (Q07820 whole entry): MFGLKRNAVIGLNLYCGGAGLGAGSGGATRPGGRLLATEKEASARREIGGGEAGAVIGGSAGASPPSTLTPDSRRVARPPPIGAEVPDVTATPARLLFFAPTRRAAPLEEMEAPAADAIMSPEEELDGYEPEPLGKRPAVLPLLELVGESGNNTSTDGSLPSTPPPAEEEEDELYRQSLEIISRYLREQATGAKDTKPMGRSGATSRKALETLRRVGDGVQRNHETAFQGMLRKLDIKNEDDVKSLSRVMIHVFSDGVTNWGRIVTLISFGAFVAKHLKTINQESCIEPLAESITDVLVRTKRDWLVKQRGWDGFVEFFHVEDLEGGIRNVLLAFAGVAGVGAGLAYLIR

[12] = target: T5, Probable nicotinate-nucleotide adenylyltransferase (Staphylococcus aureus (strain N315), UniProt P65502); type: functional, Staphylococcus aureus subsp. aureus N315; conditions: read-out: IC50_Mean;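 for IC50 Mean: confirmatory dose-response retesting of NadD inhibitor hits first found in an ultra-high-throughput screen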
T5 sequence (P65502 whole entry): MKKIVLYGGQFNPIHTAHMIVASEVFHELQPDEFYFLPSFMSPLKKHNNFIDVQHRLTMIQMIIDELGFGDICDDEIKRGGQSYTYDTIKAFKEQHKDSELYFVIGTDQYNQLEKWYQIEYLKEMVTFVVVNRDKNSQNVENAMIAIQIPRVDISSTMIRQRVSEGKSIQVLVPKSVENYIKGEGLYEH

[13] = target: T5, Probable nicotinate-nucleotide adenylyltransferase; type: functional, Staphylococcus aureus subsp. aureus N315
[14] = THP-1 cell cytotoxicity, dose response, cytotoxicity control for non-replicating M. tuberculosis project (AID 489025); type: functional
cells = type: functional
[15] = intracellular Trypanosoma cruzi inhibitors in host cells – cell-based, plate reader, cherry-pick samples, set 3, dose response (AID 651818); type: functional;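 note: compounds incubated with infected cells for about four days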
[16] = NIH:OVCAR-3 ovarian cancer cell cytotoxicity, dose response, PAX8 inhibitor project, plate reader, dry powder samples (AID 743044); type: functional, cell-based
Paired box protein Pax-8 = Paired box protein Pax-8 (Homo sapiens, UniProt Q06710); experiment: inhibitors of PAX8-driven TPO luciferase reporter, dose response, RMG-I cells, cherry-pick (AID 687027); type: functional, cell-based;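 note: luciferase reporter driven by Pax8 target thyroperoxidase promoter measured by SteadyGlo luminescence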
Paired box protein Pax-8, sequence (Q06710 whole entry): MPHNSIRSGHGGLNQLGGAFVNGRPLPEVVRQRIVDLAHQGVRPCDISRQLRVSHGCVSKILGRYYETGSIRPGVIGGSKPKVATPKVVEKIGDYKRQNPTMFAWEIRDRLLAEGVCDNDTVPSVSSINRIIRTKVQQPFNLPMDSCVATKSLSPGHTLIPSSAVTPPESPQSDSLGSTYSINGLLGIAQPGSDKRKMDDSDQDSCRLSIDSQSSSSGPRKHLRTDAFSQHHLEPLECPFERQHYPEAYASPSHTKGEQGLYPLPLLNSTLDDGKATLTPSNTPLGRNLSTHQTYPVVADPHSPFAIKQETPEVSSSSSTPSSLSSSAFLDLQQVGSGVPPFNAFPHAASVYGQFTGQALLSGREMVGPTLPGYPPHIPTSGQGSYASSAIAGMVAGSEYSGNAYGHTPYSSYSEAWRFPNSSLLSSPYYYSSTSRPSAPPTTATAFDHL

[17] = IGROV1 ovarian cancer cell cytotoxicity, dose response, PAX8 inhibitor project, plate reader, dry powder samples (AID 743043); type: functional, cell-based; conditions: IGROV-1
[18] = cytotoxicity in OVCAR8 ovarian cancer cells, dose response, PAX8 project, cell-based, plate reader, dry powder samples (AID 743197); type: functional; conditions: OVCAR-8
[19] = P. falciparum 3D7-ScDHODH growth inhibitors, dose response, SYBR Green, dry powder samples (AID 1159570); type: functional, cell-based;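 note: parasite growth measured after 72 hours of compound exposure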
[20] = P. falciparum Dd2 growth inhibitors, dose response, SYBR Green, cherry-picked samples (AID 1159567); type: functional, cell-based
[21] = P. falciparum ATP4 D1247Y mutant growth inhibitors, dose response, NITD609-resistant line, SYBR Green, dry powder (AID 1159571); type: functional, cell-based;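 note: parasites synchronized at ring stage by sorbitol before testing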
[22] = P. falciparum Dd2 growth inhibitors, dose response, SYBR Green, dry powder samples (AID 1159566); type: functional, cell-based;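 note: potency for growth inhibition with lower SYBR green DNA signal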

Eukaryotic translation initiation factor 4E, sequence (P63073 whole entry): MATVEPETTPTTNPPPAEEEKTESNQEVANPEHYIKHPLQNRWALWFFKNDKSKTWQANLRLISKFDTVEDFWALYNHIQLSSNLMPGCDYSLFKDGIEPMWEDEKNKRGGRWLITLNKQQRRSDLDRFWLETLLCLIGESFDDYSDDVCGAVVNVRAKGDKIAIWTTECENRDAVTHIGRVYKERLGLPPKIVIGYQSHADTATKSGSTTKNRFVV

## CCN(CC)CCCNC(=O)CC1Sc2ccccc2NC1=O (stereo not drawn)
[1]
  IC50: > 64 µM (inactive)

## NC(=O)CC(NC(=O)c1ccc(Br)cc1)c1ccc(NC2CCCCCC2)c([N+](=O)[O-])c1 (stereo not drawn)
[2]
  IC50: > 100 µM (inactive)
Prothrombin
  IC50: 88.5 µM (active)
[3]
  IC50: 31.6 µM (active)

## CC(C)(C)NC(=O)NC(=O)CN1CCC(Cc2ccccc2)CC1
[4]
  IC50: 12 µM (active)

## COc1ccc(NC(=O)CSc2nc(O)c(Cc3ccccc3)c(=O)[nH]2)cc1
Leucine aminopeptidase
  IC50: 10.2 µM (active)
[5]
  IC50: > 66 µM (inactive)
[6]
  IC50: > 66 µM (inactive)

## O=C(CCn1cnc2ccccc2c1=O)Nc1ccc(S(=O)(=O)N2CCCCC2)cc1
[7]
  IC50: 38.4 µM (not active)

## NC(=O)c1ccc2c(=O)n3c(-c4cc(Cl)c(N)c(Cl)c4)csc3nc2c1
[8]
  IC50: > 66.6 µM (inactive)
[9]
  IC50: 13.4 µM (active)

## C=CCN(CC=C)S(=O)(=O)c1ccc2nc(NC(=O)C(C)C)sc2c1
[4]
  IC50: 13.8 µM (active)

## COc1cc(C(=O)Nc2ccc(N(C)C)cc2)cc(OC)c1OC
Large T antigen
  IC50: 6.34 µM (active)
[10]
  AC50: 1.31 µM (active)
[11]
  IC50: 4.78 µM (not active)

## COc1ccc(/C=C2/C(=O)NC(=S)N(C3CC3)C2=O)cc1CN1C(=O)c2ccccc2C1=O
Large T antigen
  IC50: 48.5 µM (active)
[11]
  IC50: 5.54 µM (active)

## O=c1[nH][nH]c(=O)c2cc(N3CCCC3)ccc12
Leucine aminopeptidase
  IC50: 70.7 µM (active)

## CCOC(=O)CCCc1sc(N)nc1-c1[nH]c(O)nc1C
[7]
  IC50: > 93.1 µM (not active)

## N#CC1=C(S)N=C(N)C(c2nc(-c3ccccc3)cs2)C12CCCCC2 (stereo not drawn)
[12]
  IC50: 23.2 µM (active)
[13]
  IC50: 10.4 µM (active)

## COc1ccc(CC(=O)Nc2cc(C)ccn2)cc1
[7]
  IC50: 21.4 µM (not active)

## CCC(=O)Nc1ccc(C(=O)NNC(=O)c2cc([N+](=O)[O-])cc([N+](=O)[O-])c2)cc1
[14]
  CC50: > 40 µM (active)
cells
  IC50: 10.3 µM (active)

## CCSc1nnc(NC(=O)C2CC=CCC2C(=O)O)s1 (stereo not drawn)
Leucine aminopeptidase
  IC50: 19.9 µM (active)

## Cc1cc(C)c(NC(=O)CCCCCNC2CCCCC2)c(C)c1
[4]
  IC50: 12.6 µM (active)

## Cc1ccc(S(=O)(=O)CCC(=O)OC(C)C(=O)N2CCc3ccccc32)cc1 (stereo not drawn)
[4]
  IC50: 12.6 µM (active)

## CC1CCCC(C)N1CCCNC(=O)CN1C(=O)c2cccnc2Oc2ccc(Cl)cc21 (stereo not drawn)
[4]
  IC50: 13.8 µM (active)

## COc1ccc(C=C2SC(=S)N(CCCC(=O)Nc3ccc(C(=O)O)c(O)c3)C2=O)cc1OC
[2]
  IC50: > 100 µM (inactive)
Prothrombin
  IC50: 35.3 µM (active)
[3]
  IC50: 26.2 µM (active)

## Cc1ccc(S(=O)(=O)Nc2ccc3c(c2)C(=O)N([C@H](C)CO)C[C@H](C)[C@H](CN(C)S(=O)(=O)c2ccc(Cl)cc2)O3)cc1
[15]
  AC50: 4.35 µM (active)

## C[C@@H]1CN([C@@H](C)CO)C(=O)Cc2cc(NC(=O)Nc3ccc(C(F)(F)F)cc3)ccc2O[C@@H]1CN(C)S(=O)(=O)c1ccc(F)cc1
[15]
  AC50: 6.4 µM (active)

## C[C@@H]1CN([C@H](C)CO)C(=O)c2cccc(NC(=O)CCCCCC(=O)Nc3ccccc3N)c2O[C@@H]1CN(C)Cc1ccc(C(F)(F)F)cc1
[15]
  AC50: 2.34 µM (active)

## Cc1ccc(S(=O)(=O)Nc2ccc3c(c2)C(=O)N([C@@H](C)CO)C[C@H](C)[C@@H](CN(C)Cc2ccc(C(F)(F)F)cc2)OCCCC[C@H](C)O3)cc1
[16]
  AC50: 24.1 µM (active)
Paired box protein Pax-8
  AC50: 7.48 µM (active)
[17]
  AC50: 29.5 µM (active)
[18]
  AC50: 46.9 µM (active)

## C[C@@H]1CN([C@H](C)CO)C(=O)c2cc(NS(=O)(=O)c3ccc(Cl)cc3)ccc2O[C@@H](C)CCCCO[C@@H]1CN(C)CC1CCCCC1
[16]
  AC50: 9.37 µM (active)
Paired box protein Pax-8
  AC50: 9.23 µM (active)
[17]
  AC50: 44.4 µM (active)
[18]
  AC50: 18.8 µM (active)

## C[C@H]1CCCCO[C@H](CN(C)C(=O)Nc2ccc(C(F)(F)F)cc2)[C@@H](C)CN([C@@H](C)CO)C(=O)c2cc(NS(=O)(=O)c3ccccc3)ccc2O1
Paired box protein Pax-8
  AC50: 6.7 µM (active)
[17]
  AC50: 40.6 µM (active)
[18]
  AC50: 45.8 µM (active)

## O=C(Nc1ccccc1F)N1CCCCN2[C@@H](CO)[C@H](c3ccc(C#Cc4cccnc4)cc3)[C@@H]2C1
[19]
  AC50: 0.652 µM (active)
[20]
  AC50: 1.1 µM (active)
[21]
  AC50: 0.824 µM (active)
[22]
  AC50: 0.949 µM (active)

## O=c1c(-c2c(O)cc(O)c3c(=O)cc(-c4ccc(O)cc4)oc23)c(-c2ccc(O)cc2)oc2cc(O)cc(O)c12
[8]
  IC50: > 66.6 µM (inactive)
[9]
  IC50: 9.2 µM (active)
[11]
  IC50: 2.73 µM (not active)

## Cc1cc(O)ccc1-c1cnc2ccccc2n1
[7]
  IC50: 28.1 µM (not active)
